Values of other authors, collected in patent US20200246414A1, “COMPOSITIONS AND METHODS FOR THE TREATMENT OF CONSTIPATION AND OTHER AILMENTS OF THE GASTROINTESTINAL SYSTEM” (K.L.R.M., LLC, priority 2019, published 2020).

Tested on: isolated gastric cells
Details: suspension of isolated gastric cells

Row | Structure (SMILES) | mucus secretion / mucus release
1 | O=[N+]([O-])O[C@H]1CO[C@H]2[C@@H]1OC[C@H]2O[N+](=O)[O-] [isosorbide dinitrate] | stimulated mucus secretion
2 | CCCOc1ccccc1-c1nc2[nH]nnc2c(=O)[nH]1 [M and B 22948] | increased the mucus release
3 | CCCC(=O)Nc1nc2c(ncn2C2O[C@H]3COP(=O)(O)O[C@@H]3[C@@H]2OC(=O)CCC)c(=O)[nH]1 (stereo partly shown) [Dibutyryl cyclic GMP] | increased the mucus release
4 | CC(=O)N[C@H](C(=O)O)C(C)(C)SN=O (racemic) [S-nitroso-N-acetylpenicillamine] | stimulated mucus secretion
